Usually IC50 stands for the concentration needed to halve the response being measured. Broadly, the EC50 is the concentration needed to bring the measured effect to its halfway point.

Like-named read-outs stand apart in the source and are kept apart here.

One test addresses T1, NS3-NS4A protease (Hepatitis C virus genotype 1a, UniProt P27958).
T1 construct: Recombinant E. coli or Baculovirus full-length NS3 was diluted to 3.33 μM with assay buffer; made in house; host or cells: E. coli or baculovirus (BV) system
Put plainly: NS3-NS4A protease assay (NS3 inhibition assay, RETS1 substrate), Section B. The class given is biochemical. The procedure, abridged:
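Kinetic fluorescence read (335 nm excitation, 495 nm emission, 30 min) of RETS1 cleavage by NS3/NS4A-2 complex, 2 nM E. coli or 3 nM baculovirus NS3, after 10 min room-temperature compound pre-incubation. Four-parameter-fit IC50s converted to Ki by Cheng–Prusoff, Ki=IC50/(1+[S]/Km).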

Test [1] has as its system HCV sub-genomic replicon, GS4.3. Description: Quantitation by ELISA of NPTII in the HCV sub-genomic replicon, GS4.3, Section B. The class given is cell-based. The following applies: Hepatitis C virus; GS4.3 cells, 72 h incubation; read-out: Replicon EC50. The procedure, abridged: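 NPTII marker protein in lysates was quantified by ELISA read at 450 nm after 72 h inhibitor exposure (3-fold series, final DMSO 1%, G418-free medium) of HuH-7 cells stably harbouring the subgenomic HCV replicon. Values relative to DMSO-treated controls; 4-parameter curves gave EC50.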
Background: ELISA stands for enzyme-linked immunosorbent assay.

T1 sequence (P27958 1027-1657): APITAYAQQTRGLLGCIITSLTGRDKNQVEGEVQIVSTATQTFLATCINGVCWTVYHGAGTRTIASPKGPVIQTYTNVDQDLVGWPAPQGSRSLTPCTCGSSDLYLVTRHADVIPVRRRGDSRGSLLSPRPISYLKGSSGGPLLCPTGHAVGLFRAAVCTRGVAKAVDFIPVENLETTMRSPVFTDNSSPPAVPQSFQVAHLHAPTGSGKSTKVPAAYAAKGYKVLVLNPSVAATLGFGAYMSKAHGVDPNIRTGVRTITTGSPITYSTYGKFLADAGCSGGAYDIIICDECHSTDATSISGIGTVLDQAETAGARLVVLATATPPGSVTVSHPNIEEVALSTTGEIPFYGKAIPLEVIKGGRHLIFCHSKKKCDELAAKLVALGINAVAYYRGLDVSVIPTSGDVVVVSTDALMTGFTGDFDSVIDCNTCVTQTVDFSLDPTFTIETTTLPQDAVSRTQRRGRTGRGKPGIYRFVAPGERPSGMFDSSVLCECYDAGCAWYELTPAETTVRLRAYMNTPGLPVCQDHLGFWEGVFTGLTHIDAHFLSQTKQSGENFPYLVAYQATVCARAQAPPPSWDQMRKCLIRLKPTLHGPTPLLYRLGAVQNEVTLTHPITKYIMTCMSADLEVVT

In the case of `CC(C)NCCOc1ccc2c(c1)CN(C(=O)O[C@@H]1C[C@H]3C(=O)N[C@]4(C(=O)NS(=O)(=O)C5CC5)C[C@H]4/C=C\CCCCC[C@H](NC(=O)OC(C)(C)C)C(=O)N3C1)C2` [AR00345094, (1S,4R,6S,14S,18R)-5-(2-Isopropylamino-ethoxy)-1,3-dihydro-isoindole-2-carboxylic acid 14-tert-butoxycarbonylamino-4-cyclopropanesulfonylaminocarbonyl-2,15-dioxo-3,16-diaza-tricyclo[14.3.0.0^4,6]nonadec-7-en-18-yl ester], at NS3-NS4A protease (read-out: NS3-NS4A IC50), the IC50 was under 100 nM. The EC50 in test [1] was under 100 nM.

Turning to `CC(C)(C)OC(=O)N[C@H]1CCCCC/C=C\[C@@H]2C[C@@]2(C(=O)NS(=O)(=O)c2ccc(Cl)s2)NC(=O)[C@@H]2C[C@@H](OC(=O)N3Cc4ccc(Cl)cc4C3)CN2C1=O` [AR00340173, (1S,4R,6S,14S,18R)-5-Chloro-1,3-dihydro-isoindole-2-carboxylic acid 14-tert-butoxycarbonylamino-4-(5-chloro-thiophene-2-sulfonylaminocarbonyl)-2,15-dioxo-3,16-diaza-tricyclo[14.3.0.0^4,6]nonadec-7-en-18-yl ester], the IC50 on NS3-NS4A protease (read-out: NS3-NS4A IC50) was under 100 nM. Further, the EC50 in test [1] is under 10000 nM.

For the compound `O=C(NC1CCCC1)N[C@H]1CCCCC/C=C\[C@@H]2C[C@@]2(C(=O)O)NC(=O)[C@@H]2C[C@@H](OC(=O)N3CCc4cccc(C(F)(F)F)c4C3)CN2C1=O` [AR00304078, (1S,4R,6S,14S,18R)-14-(3-Cyclopentyl-ureido)-2,15-dioxo-18-(8-trifluoromethyl-3,4-dihydro-1H-isoquinoline-2-carbonyloxy)-3,16-diaza-tricyclo[14.3.0.0^4,6]nonadec-7-ene-4-carboxylic acid], on NS3-NS4A protease (read-out: NS3-NS4A IC50), the IC50 is under 100 nM. The EC50 in test [1] was under 1000 nM.

For the compound `COC(=O)c1ccc2c(c1)CN(C(=O)O[C@@H]1C[C@H]3C(=O)N[C@]4(C(=O)NS(=O)(=O)C5CC5)C[C@H]4/C=C\CCCCC[C@H](NC(=O)OC(C)(C)C)C(=O)N3C1)C2` [AR00365083, (1S,4R,6S,14S,18R)-1,3-Dihydro-isoindole-2,5-dicarboxylic acid 2-(14-tert-butoxycarbonylamino-4-cyclopropanesulfonylaminocarbonyl-2,15-dioxo-3,16-diaza-tricyclo[14.3.0.0^4,6]nonadec-7-en-18-yl) ester 5-methyl ester], the IC50 on NS3-NS4A protease (read-out: NS3-NS4A IC50) is under 100 nM. Further, in test [1], the EC50 is under 100 nM.

Consider `CC(C)(C)OC(=O)N[C@H]1CCCCC/C=C\[C@@H]2C[C@@]2(C(=O)NS(=O)(=O)C2CC2)NC(=O)[C@@H]2C[C@@H](OC(=O)N3Cc4ccc(Br)cc4C3)CN2C1=O` [AR00340526, (1S,4R,6S,14S,18R)-5-Bromo-1,3-dihydro-isoindole-2-carboxylic acid 14-tert-butoxycarbonylamino-4-cyclopropanesulfonylaminocarbonyl-2,15-dioxo-3,16-diaza-tricyclo[14.3.0.0^4,6]nonadec-7-en-18-yl ester], for which the concentration for half-maximal inhibition (IC50) on NS3-NS4A protease (read-out: NS3-NS4A IC50) was under 100 nM. Besides, the EC50 in test [1] is under 100 nM.

In the case of `COc1ccc(CC(=O)N[C@H]2CCCCC/C=C\[C@@H]3C[C@@]3(C(=O)NS(=O)(=O)C3CC3)NC(=O)[C@@H]3C[C@@H](OC(=O)N4Cc5cccc(F)c5C4)CN3C2=O)cc1` [AR00340156, (1S,4R,6S,14S,18R)-4-Fluoro-1,3-dihydro-isoindole-2-carboxylic acid 4-cyclopropanesulfonylaminocarbonyl-14-[2-(4-methoxy-phenyl)-acetylamino]-2,15-dioxo-3,16-diaza-tricyclo[14.3.0.0^4,6]nonadec-7-en-18-yl ester], the half-inhibitory concentration (IC50) on NS3-NS4A protease (read-out: NS3-NS4A IC50) is under 100 nM. Moreover, the EC50 in test [1] is under 1000 nM.

Take `CC(C)(C)NC(=O)N[C@H]1CCCCC/C=C\[C@@H]2C[C@@]2(C(=O)NS(=O)(=O)C2CC2)NC(=O)[C@@H]2C[C@@H](OC(=O)N3Cc4ccccc4C3)CN2C1=O` [AR00320220, (1S,4R,6S,14S,18R)-1,3-Dihydro-isoindole-2-carboxylic acid 14-(3-tert-butyl-ureido)-4-cyclopropanesulfonylaminocarbonyl-2,15-dioxo-3,16-diaza-tricyclo[14.3.0.0^4,6]nonadec-7-en-18-yl ester]: on NS3-NS4A protease (read-out: NS3-NS4A IC50), the IC50 is under 100 nM. In addition, the EC50 in test [1] was under 100 nM.

`CC(C)(C)OC(=O)N[C@H]1CCCCC/C=C\[C@@H]2C[C@@]2(C(=O)NS(=O)(=O)c2ccc([N+](=O)[O-])cc2)NC(=O)[C@@H]2C[C@@H](OC(=O)N3Cc4ccccc4C3)CN2C1=O` [AR00334249, (1S,4R,6S,14S,18R)-1,3-Dihydro-isoindole-2-carboxylic acid 14-tert-butoxycarbonylamino-4-(4-nitro-benzenesulfonylaminocarbonyl)-2,15-dioxo-3,16-diaza-tricyclo[14.3.0.0^4,6]nonadec-7-en-18-yl ester]: the IC50 at NS3-NS4A protease (read-out: NS3-NS4A IC50) was under 100 nM. For the same compound, the EC50 in test [1] was under 1000 nM.

For the compound `CC(C)(C)Nc1nc2c(s1)CN(C(=O)O[C@@H]1C[C@H]3C(=O)N[C@]4(C(=O)O)C[C@H]4/C=C\CCCCC[C@H](NC(=O)OC(C)(C)C)C(=O)N3C1)CC2` [AR00304103, (1S,4R,6S,14S,18R)-14-tert-Butoxycarbonylamino-18-(2-tert-butylamino-6,7-dihydro-4H-thiazolo[5,4-c]pyridine-5-carbonyloxy)-2,15-dioxo-3,16-diaza-tricyclo[14.3.0.0^4,6]nonadec-7-ene-4-carboxylic acid], on NS3-NS4A protease (read-out: NS3-NS4A IC50), the IC50 is under 10000 nM. In addition, in test [1], the EC50 was under 10000 nM.

`COc1ccc2c(c1)CN(C(=O)O[C@@H]1C[C@H]3C(=O)N[C@]4(C(=O)NS(=O)(=O)C5CC5)C[C@H]4/C=C\CCCCC[C@H](NC(=O)OC(C)(C)C)C(=O)N3C1)C2` [AR00334314, (1S,4R,6S,14S,18R)-5-Methoxy-1,3-dihydro-isoindole-2-carboxylic acid 14-tert-butoxycarbonylamino-4-cyclopropanesulfonylaminocarbonyl-2,15-dioxo-3,16-diaza-tricyclo[14.3.0.0^4,6]nonadec-7-en-18-yl ester]: at NS3-NS4A protease (read-out: NS3-NS4A IC50), the half-maximal inhibitory concentration (IC50) was under 100 nM. The EC50 in test [1] was under 100 nM.

As to `CC(=O)N[C@H](C(=O)N[C@H]1CCCCC/C=C\[C@@H]2C[C@@]2(C(=O)NS(=O)(=O)C2CC2)NC(=O)[C@@H]2C[C@@H](OC(=O)N3Cc4cccc(F)c4C3)CN2C1=O)C1CCCCC1` [AR00340122, (1S,4R,6S,14S,18R)-4-Fluoro-1,3-dihydro-isoindole-2-carboxylic acid 14-(2-acetylamino-2-cyclohexyl-acetylamino)-4-cyclopropanesulfonylaminocarbonyl-2,15-dioxo-3,16-diaza-tricyclo[14.3.0.0^4,6]nonadec-7-en-18-yl ester], the IC50 against NS3-NS4A protease was under 100 nM. Besides, the 50% effective concentration (EC50) in test [1] was under 1000 nM.

`CC(C)(C)OC(=O)N[C@H]1CCCCC/C=C\[C@@H]2C[C@@]2(C(=O)NS(=O)(=O)C2CC2)NC(=O)[C@@H]2C[C@@H](OC(=O)N3CCc4ccccc4C3CN3CCCCC3)CN2C1=O` (stereo partly drawn) [AR00311815, (1S,4R,6S,14S,18R)-1-Piperidin-1-ylmethyl-3,4-dihydro-1H-isoquinoline-2-carboxylic acid 14-tert-butoxycarbonylamino-4-cyclopropanesulfonylaminocarbonyl-2,15-dioxo-3,16-diaza-tricyclo[14.3.0.0^4,6]nonadec-7-en-18-yl ester]: on NS3-NS4A protease (read-out: NS3-NS4A IC50), the IC50 is under 100 nM. Also, the EC50 in test [1] was under 1000 nM.

On to `CC(C)(C)OC(=O)N[C@H]1CCCCC/C=C\[C@@H]2C[C@@]2(C(=O)O)NC(=O)[C@@H]2C[C@@H](OC(=O)N3Cc4cccc(F)c4C3)CN2C1=O` [AR00365369, (1S,4R,6S,14S,18R)-14-tert-Butoxycarbonylamino-18-(4-fluoro-1,3-dihydro-isoindole-2-carbonyloxy)-2,15-dioxo-3,16-diaza-tricyclo[14.3.0.0^4,6]nonadec-7-ene-4-carboxylic acid], for which the IC50 at NS3-NS4A protease (read-out: NS3-NS4A IC50) is under 100 nM. In test [1], the EC50 was under 1000 nM.

Regarding `CCNC(=O)c1ccc2c(c1)CN(C(=O)O[C@@H]1C[C@H]3C(=O)N[C@]4(C(=O)NS(=O)(=O)C5CC5)C[C@H]4/C=C\CCCCC[C@H](NC(=O)OC(C)(C)C)C(=O)N3C1)C2` [AR00365252, (1S,4R,6S,14S,18R)-5-Ethylcarbamoyl-1,3-dihydro-isoindole-2-carboxylic acid 14-tert-butoxycarbonylamino-4-cyclopropanesulfonylaminocarbonyl-2,15-dioxo-3,16-diaza-tricyclo[14.3.0.0^4,6]nonadec-7-en-18-yl ester], the IC50 on NS3-NS4A protease (read-out: NS3-NS4A IC50) was under 100 nM. Besides, in test [1], the EC50 is under 1000 nM.

Take `CC(C)Nc1ccc2c(c1)CN(C(=O)O[C@@H]1C[C@H]3C(=O)N[C@]4(C(=O)NS(=O)(=O)C5CC5)C[C@H]4/C=C\CCCCC[C@H](NC(=O)OC(C)(C)C)C(=O)N3C1)C2` [AR00341649, (1S,4R,6S,14S,18R)-5-Isopropylamino-1,3-dihydro-isoindole-2-carboxylic acid 14-tert-butoxycarbonylamino-4-cyclopropanesulfonylaminocarbonyl-2,15-dioxo-3,16-diaza-tricyclo[14.3.0.0^4,6]nonadec-7-en-18-yl ester]: on NS3-NS4A protease (read-out: NS3-NS4A IC50), the IC50 is under 100 nM. In addition, the EC50 in test [1] was under 100 nM.

`CC(C)S(=O)(=O)NC(=O)[C@@]12C[C@H]1/C=C\CCCCC[C@H](NC(=O)OC(C)(C)C)C(=O)N1C[C@H](OC(=O)N3Cc4ccccc4C3)C[C@H]1C(=O)N2` [AR00333801, (1S,4R,6S,14S,18R)-1,3-Dihydro-isoindole-2-carboxylic acid 14-tert-butoxycarbonylamino-2,15-dioxo-4-(propane-2-sulfonylaminocarbonyl)-3,16-diaza-tricyclo[14.3.0.0^4,6]nonadec-7-en-18-yl ester]: the IC50 on NS3-NS4A protease (read-out: NS3-NS4A IC50) is under 100 nM. Further, the concentration for a half-maximal effect (EC50) in test [1] was under 100 nM.

(Values after patent US7491794B2, “Macrocyclic compounds as inhibitors of viral replication” (Intermune, Inc., priority 2003, dated 2009).)
